Assay [1] has as its system Rattus norvegicus. Nature of the assay: Antiinflammatory activity in Wistar albino rat assessed as inhibition of carrageenan-induced increase in paw edema at 10 mg/kg, po after 90 mins (reference value: 38.7 %). More on the design: scale not given: the % may be the effect or the level left. It counts as functional.
In assay [2] the target is T1, Prostaglandin G/H synthase 1 (Rattus norvegicus, UniProt Q63921).
T1 sequence (Q63921 whole entry): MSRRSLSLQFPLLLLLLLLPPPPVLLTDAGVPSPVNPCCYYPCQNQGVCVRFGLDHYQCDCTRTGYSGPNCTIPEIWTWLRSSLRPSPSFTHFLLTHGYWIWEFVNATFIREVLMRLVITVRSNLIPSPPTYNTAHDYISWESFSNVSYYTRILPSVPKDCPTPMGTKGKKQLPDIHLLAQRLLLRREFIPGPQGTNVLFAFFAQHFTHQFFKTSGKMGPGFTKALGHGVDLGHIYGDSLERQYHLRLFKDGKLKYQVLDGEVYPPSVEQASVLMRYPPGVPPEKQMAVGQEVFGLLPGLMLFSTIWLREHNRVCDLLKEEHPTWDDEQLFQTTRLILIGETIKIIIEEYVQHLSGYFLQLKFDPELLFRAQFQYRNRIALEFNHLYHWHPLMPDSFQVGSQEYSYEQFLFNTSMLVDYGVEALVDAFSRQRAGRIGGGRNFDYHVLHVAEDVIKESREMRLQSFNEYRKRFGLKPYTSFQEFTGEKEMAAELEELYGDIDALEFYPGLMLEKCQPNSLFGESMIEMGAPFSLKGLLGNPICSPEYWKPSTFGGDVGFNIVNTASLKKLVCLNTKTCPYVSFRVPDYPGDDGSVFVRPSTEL
Nature of the assay: Inhibition of rat seminal vesicle COX-1 using arachidonic acid as substrate assessed as reduction of PGG2 to PGH2 incubated for 1 min prior to substrate addition measured after 25 secs by chromogenic assay.

Assay [3] is described as follows: Selectivity index, ratio of IC50 for human recombinant COX-2 to IC50 for rat seminal vesicle COX-1. It counts as tissue-based.
Assay [4] concerns Rattus norvegicus. The experiment in a line: Antiinflammatory activity in Wistar albino rat assessed as inhibition of carrageenan-induced increase in paw edema at 10 mg/kg, po after 30 mins (reference value: 30.1 %). It counts as functional. On the set-up: scale not given: the % may be the effect or the level left. A general note: The carrageenan paw model is a standard test of acute inflammation.

For assay [5], the target named is T2, Prostaglandin G/H synthase 2 (Homo sapiens, UniProt P35354).
T2 sequence (P35354 whole entry): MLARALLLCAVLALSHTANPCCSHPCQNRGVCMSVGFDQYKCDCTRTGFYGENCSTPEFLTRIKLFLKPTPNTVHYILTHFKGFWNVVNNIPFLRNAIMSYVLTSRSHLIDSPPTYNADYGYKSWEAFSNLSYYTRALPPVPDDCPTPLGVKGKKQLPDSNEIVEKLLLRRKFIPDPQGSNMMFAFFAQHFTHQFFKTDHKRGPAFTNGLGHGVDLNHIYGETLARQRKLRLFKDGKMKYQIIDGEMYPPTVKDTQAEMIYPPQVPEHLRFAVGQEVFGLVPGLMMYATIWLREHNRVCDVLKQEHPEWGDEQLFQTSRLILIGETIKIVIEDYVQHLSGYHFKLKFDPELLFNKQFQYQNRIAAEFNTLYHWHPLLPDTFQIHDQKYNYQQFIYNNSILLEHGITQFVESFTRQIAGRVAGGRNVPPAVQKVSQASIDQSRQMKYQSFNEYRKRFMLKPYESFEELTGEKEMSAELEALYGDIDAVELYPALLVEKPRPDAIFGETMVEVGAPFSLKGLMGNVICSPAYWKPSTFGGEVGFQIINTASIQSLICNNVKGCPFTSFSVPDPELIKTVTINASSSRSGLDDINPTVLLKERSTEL
The experiment in a line: Inhibition of human recombinant COX-2 expressed in insect cell system using arachidonic acid as substrate assessed as reduction of PGG2 to PGH2 incubated for 1 min prior to substrate addition measured after 25 secs by chromogenic assay.

As for `CCOC(=O)c1c(C)oc2ccc(Oc3ccc(C)cc3)cc12`, the Activity in the assay with Rattus norvegicus [1] is 25.8%; in the assay with Rattus norvegicus [4], 14.1%. In addition, the IC50 stood at 49.7 µM in assay [2] and 4.2 µM in assay [5]. Besides, the Ratio IC50 in assay [3] was 0.08.
Consider `CCOC(=O)c1c(-c2ccccc2)oc2ccc(Oc3ccc(C)cc3)cc12`, for which the Activity in the assay on Rattus norvegicus [1] stood at 32.6%; in the assay on Rattus norvegicus [4] it was 22.1%. In addition, the results for the IC50 in assay [2] and in assay [5] were 26.2 µM and 19.2 µM, respectively. In addition, the Ratio IC50 in assay [3] stood at 0.74.
Regarding `CCOC(=O)c1c(-c2ccccc2)oc2ccc(Oc3ccc4ccccc4c3)cc12`, the Activity with Rattus norvegicus [1] came out at 32.6%; with Rattus norvegicus [4] it was 20.1%.
Take `CCOC(=O)c1c(C)oc2ccc(Oc3ccc4ccccc4c3)cc12`: the results for the IC50 in assay [2] and in assay [5] were 47.5 µM and 15.8 µM, respectively. The Ratio IC50 in assay [3] stood at 0.35.
With `CCOC(=O)c1c(C)oc2ccc(Oc3ccc(OC)cc3)cc12`, the Activity came to 12.3% in the assay with Rattus norvegicus [1] and 9.5% in the assay with Rattus norvegicus [4]. Moreover, the IC50 came to 38.1 µM in assay [2] and 8.6 µM in assay [5]. For the same compound, in assay [3], the Ratio IC50 was found to be 0.23.
As for `CCOC(=O)c1c(-c2ccccc2)oc2ccc(Oc3ccccc3C)cc12`, the Activity in the assay on Rattus norvegicus [1] turned out to be 24.4%; in the assay with Rattus norvegicus [4] it was 14.8%. In addition, the values for the IC50 in assay [2] and in assay [5] were 29.8 µM and 20.1 µM, respectively. Besides, the Ratio IC50 in assay [3] was 0.67.
In the same order, the values of `CCOC(=O)c1c(C)oc2ccc(Oc3ccccc3)cc12` are 23.8%, 15.7%, 30.8 µM, 18.5 µM and 0.59.
`CCOC(=O)c1c(-c2ccccc2)oc2ccc(Oc3ccccn3)cc12`: the Activity is listed as 32.6% in the assay on Rattus norvegicus [1] and 25.1% in the assay on Rattus norvegicus [4].
Turning to `CCOC(=O)c1c(C)oc2ccc(Oc3ccccc3C)cc12`, the Activity is recorded as 20.4% in the assay with Rattus norvegicus [1] and 10.1% with Rattus norvegicus [4]. The IC50 in assay [2] amounted to 35.8 µM; in assay [5], 6.1 µM. In addition, the Ratio IC50 in assay [3] was found to be 0.17.
For the compound `CS(=O)(=O)Nc1ccc([N+](=O)[O-])cc1Oc1ccccc1` [NIMESULIDE], the Activity is on record as 23.4% in the assay with Rattus norvegicus [1] and 14.1% in the assay with Rattus norvegicus [4].
`CCOC(=O)c1c(-c2ccccc2)oc2ccc(Oc3ccccc3)cc12`: the Activity worked out at 28.4% in the assay with Rattus norvegicus [1] and 15.8% with Rattus norvegicus [4]. Moreover, the IC50 in assay [2] was found to be 42.5 µM; in assay [5], 18.2 µM. Besides, in assay [3], the Ratio IC50 was determined as 0.43.
Take `CCOC(=O)c1c(C)oc2ccc(Oc3ccccn3)cc12`: the Activity with Rattus norvegicus [1] is 18.9%. Besides, the half-maximal inhibitory concentration (IC50) in assay [2] was 27.9 µM; in assay [5], 8.1 µM. Also, the Ratio IC50 in assay [3] came to 0.29.

One may read the IC50 as the midpoint of a concentration-inhibition curve.

These data come from ChEMBL document CHEMBL3259612, “Design, synthesis, docking and anti-inflammatory evaluation of novel series of benzofuran based prodrugs” (Bioorg Med Chem Lett, 2014).
